Data: patent US11071731B2, “Allosteric modulators of the mu opioid receptor” (Chiromics, LLC, priority 2017, dated 2021)

Columns and labels:
mu opioid receptor (MOR) [1] = target: T1, mu opioid receptor (MOR) (Homo sapiens, UniProt P35372); assay: Hit Hunter cAMP signaling assay (adenylyl cyclase inhibition), PAM mode with EC20 endomorphin-1; type: cell-based
mu opioid receptor (MOR) [2] = target: T1, mu opioid receptor (MOR); assay: PathHunter β-arrestin recruitment assay, PAM mode with EC20 endomorphin-1; type: cell-based; settings: for EC50: read-out: β-arr. EC50
Summary of the method: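 β-Arrestin recruitment to the receptor was tracked by chemiluminescent β-galactosidase activity from complementing fragments (ED on receptor, EA on β-arrestin). Per-compound outputs were EC50 and percent maximal response.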

[3] = adenylyl cyclase inhibition, read-out: cAMP EC50
[4] = maximal response, adenylyl cyclase inhibition
[5] = maximal response, β-arrestin recruitment
[6] = cAMP EC50, adenylyl cyclase inhibition
[7] = maximal response for adenylyl cyclase inhibition
[8] = maximal response for β-arrestin recruitment

T1 sequence (P35372 whole entry): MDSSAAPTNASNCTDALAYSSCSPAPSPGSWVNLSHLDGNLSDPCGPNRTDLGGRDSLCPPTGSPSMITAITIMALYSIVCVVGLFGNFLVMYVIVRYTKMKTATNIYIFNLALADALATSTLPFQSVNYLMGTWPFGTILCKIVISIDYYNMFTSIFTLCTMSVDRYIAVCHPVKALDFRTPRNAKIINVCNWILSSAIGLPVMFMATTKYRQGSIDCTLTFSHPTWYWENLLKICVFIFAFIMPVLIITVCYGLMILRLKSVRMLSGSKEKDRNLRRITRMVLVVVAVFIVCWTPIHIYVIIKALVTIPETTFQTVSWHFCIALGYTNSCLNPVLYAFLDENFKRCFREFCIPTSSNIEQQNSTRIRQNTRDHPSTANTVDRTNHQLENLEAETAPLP

SMILES: FC(F)(F)c1cccc(C2CCCCN2c2ccc(Cl)cc2)n1 (stereo not drawn) [compound 454]
- EC50 (mu opioid receptor (MOR) [1]; [3]): > 2100 nM
- cAMP Max. Resp. (mu opioid receptor (MOR) [1]; [4]): D (D represents a maximal response of < 40%)
- β-arr Max. Resp. (mu opioid receptor (MOR) [2]; [5]): E (E represents a maximal response of 40-60%)
- EC50 (mu opioid receptor (MOR) [2]; β-arrestin recruitment): > 2100 nM

SMILES: CC1CC(c2cc(F)cc(C(F)(F)F)c2)N(c2nc(Cl)ncc2F)C1 (stereo not drawn) [compound 450]
- EC50 (mu opioid receptor (MOR) [1]; [3]): > 2100 nM
- cAMP Max. Resp. (mu opioid receptor (MOR) [1]; [4]): E (E represents a maximal response of 40-60%)
- β-arr Max. Resp. (mu opioid receptor (MOR) [2]; [5]): F (F represents a maximal response of > 60%)
- EC50 (mu opioid receptor (MOR) [2]; β-arrestin recruitment): > 2100 nM

SMILES: Fc1cc(Cl)cc(C2CCCCN2c2nc(Cl)ncc2F)c1 (single isomer, unassigned) [compound 404]
- EC50 (mu opioid receptor (MOR) [1]; [6]): < 700 nM
- cAMP Max. Resp. (mu opioid receptor (MOR) [1]; [7]): D (D represents a maximal response of < 40%)
- β-arr Max. Resp. (mu opioid receptor (MOR) [2]; [8]): D (D represents a maximal response of < 40%)
- EC50 (mu opioid receptor (MOR) [2]; β-arrestin recruitment): < 700 nM

SMILES: Fc1ccc(Cl)cc1CN1CCCCC1c1ccc(Cl)c(C(F)(F)F)c1 (stereo not drawn) [compound 150]
- EC50 (mu opioid receptor (MOR) [1]; [6]): < 700 nM
- cAMP Max. Resp. (mu opioid receptor (MOR) [1]; [7]): E (E represents a maximal response of 40-60%)
- β-arr Max. Resp. (mu opioid receptor (MOR) [2]; [8]): F (F represents a maximal response of > 60%)
- EC50 (mu opioid receptor (MOR) [2]; β-arrestin recruitment): < 700 nM

SMILES: FC(F)(F)c1cccc(C2CCCCN2Cc2cncc(Cl)c2)n1 (stereo not drawn) [compound 143]
- EC50 (mu opioid receptor (MOR) [1]; [6]): > 2100 nM
- cAMP Max. Resp. (mu opioid receptor (MOR) [1]; [7]): D (D represents a maximal response of < 40%)
- β-arr Max. Resp. (mu opioid receptor (MOR) [2]; [8]): D (D represents a maximal response of < 40%)
- EC50 (mu opioid receptor (MOR) [2]; β-arrestin recruitment): > 2100 nM

SMILES: Fc1cccc(C2CCCCN2c2nc(Cl)ncc2F)n1 (stereo not drawn) [compound 133]
- EC50 (mu opioid receptor (MOR) [1]; [6]): > 2100 nM
- cAMP Max. Resp. (mu opioid receptor (MOR) [1]; [7]): E (E represents a maximal response of 40-60%)
- β-arr Max. Resp. (mu opioid receptor (MOR) [2]; [8]): F (F represents a maximal response of > 60%)
- EC50 (mu opioid receptor (MOR) [2]; β-arrestin recruitment): > 2100 nM

SMILES: Fc1ccc(C2CSCCN2c2nc(Cl)ncc2F)cc1Cl (stereo not drawn) [Compound 460]
- EC50 (mu opioid receptor (MOR) [1]; [3]): > 2100 nM
- cAMP Max. Resp. (mu opioid receptor (MOR) [1]; [4]): F (F represents a maximal response of > 60%)
- β-arr Max. Resp. (mu opioid receptor (MOR) [2]; [5]): F (F represents a maximal response of > 60%)
- EC50 (mu opioid receptor (MOR) [2]; β-arrestin recruitment): > 2100 nM

SMILES: COc1ccc(C2CCCCN2c2ncncc2F)cc1Br (stereo not drawn) [compound 233]
- EC50 (mu opioid receptor (MOR) [1]; [6]): > 2100 nM
- cAMP Max. Resp. (mu opioid receptor (MOR) [1]; [7]): F (F represents a maximal response of > 60%)
- β-arr Max. Resp. (mu opioid receptor (MOR) [2]; [8]): F (F represents a maximal response of > 60%)
- EC50 (mu opioid receptor (MOR) [2]; β-arrestin recruitment): > 2100 nM

SMILES: COc1ccc(C2CCCCCN2S(=O)(=O)c2ccc(Cl)cc2)cc1Br (racemic) [compound 84]
- EC50 (mu opioid receptor (MOR) [1]; [3]): > 2100 nM
- cAMP Max. Resp. (mu opioid receptor (MOR) [1]; [7]): D (D represents a maximal response of < 40%)
- β-arr Max. Resp. (mu opioid receptor (MOR) [2]; [8]): E (E represents a maximal response of 40-60%)
- EC50 (mu opioid receptor (MOR) [2]; β-arrestin recruitment): > 2100 nM

SMILES: O=S(=O)(Cc1ccccc1Cl)N1CCCCC1c1cccc(C(F)(F)F)c1 (stereo not drawn) [Compound 24]
- EC50 (mu opioid receptor (MOR) [1]; [3]): > 2100 nM
- cAMP Max. Resp. (mu opioid receptor (MOR) [1]; [7]): D (D represents a maximal response of < 40%)
- β-arr Max. Resp. (mu opioid receptor (MOR) [2]; [8]): F (F represents a maximal response of > 60%)
- EC50 (mu opioid receptor (MOR) [2]; β-arrestin recruitment): > 2100 nM

SMILES: FC(F)(F)c1cccc(C2CCCCN2c2ccnc(Cl)n2)n1 (stereo not drawn) [compound 469]
- EC50 (mu opioid receptor (MOR) [1]; [6]): > 2100 nM
- cAMP Max. Resp. (mu opioid receptor (MOR) [1]; [4]): D (D represents a maximal response of < 40%)
- β-arr Max. Resp. (mu opioid receptor (MOR) [2]; [5]): F (F represents a maximal response of > 60%)
- EC50 (mu opioid receptor (MOR) [2]; β-arrestin recruitment): > 2100 nM

SMILES: OC1CN(c2ncc(F)c(N3CCCCC3c3cccc(C(F)(F)F)c3)n2)C1 (stereo not drawn) [compound 256]
- EC50 (mu opioid receptor (MOR) [1]; [6]): > 2100 nM
- cAMP Max. Resp. (mu opioid receptor (MOR) [1]; [7]): D (D represents a maximal response of < 40%)
- β-arr Max. Resp. (mu opioid receptor (MOR) [2]; [8]): D (D represents a maximal response of < 40%)
- EC50 (mu opioid receptor (MOR) [2]; β-arrestin recruitment): > 2100 nM

SMILES: CC1CCN(S(=O)(=O)c2ccc(Cl)cc2)C1c1cccc(C(F)(F)F)c1 (mixture of isomers) [Compound 89]
- EC50 (mu opioid receptor (MOR) [1]; [3]): > 2100 nM
- cAMP Max. Resp. (mu opioid receptor (MOR) [1]; [7]): D (D represents a maximal response of < 40%)
- β-arr Max. Resp. (mu opioid receptor (MOR) [2]; [8]): F (F represents a maximal response of > 60%)
- EC50 (mu opioid receptor (MOR) [2]; β-arrestin recruitment): 700 to 2100 nM

SMILES: Cc1cc(C2CCCCN2S(=O)(=O)c2ccc(Cl)cc2)ccn1 (racemic) [compound 77]
- EC50 (mu opioid receptor (MOR) [1]; [3]): > 2100 nM
- cAMP Max. Resp. (mu opioid receptor (MOR) [1]; [7]): D (D represents a maximal response of < 40%)
- β-arr Max. Resp. (mu opioid receptor (MOR) [2]; [8]): F (F represents a maximal response of > 60%)
- EC50 (mu opioid receptor (MOR) [2]; β-arrestin recruitment): > 2100 nM

SMILES: Fc1cccc(C2CCCCN2Cc2cc(Cl)ccc2F)n1 (stereo not drawn) [compound 171]
- EC50 (mu opioid receptor (MOR) [1]; [6]): 700 to 2100 nM
- cAMP Max. Resp. (mu opioid receptor (MOR) [1]; [7]): E (E represents a maximal response of 40-60%)
- β-arr Max. Resp. (mu opioid receptor (MOR) [2]; [8]): F (F represents a maximal response of > 60%)
- EC50 (mu opioid receptor (MOR) [2]; β-arrestin recruitment): 700 to 2100 nM

SMILES: Fc1cnc(Cl)nc1N1CCCCC1c1cccc2cnnn12 (stereo not drawn) [compound 333]
- EC50 (mu opioid receptor (MOR) [1]; [6]): < 700 nM
- cAMP Max. Resp. (mu opioid receptor (MOR) [1]; [7]): D (D represents a maximal response of < 40%)
- β-arr Max. Resp. (mu opioid receptor (MOR) [2]; [8]): D (D represents a maximal response of < 40%)
- EC50 (mu opioid receptor (MOR) [2]; β-arrestin recruitment): < 700 nM

SMILES: CC1CCN(S(=O)(=O)c2ccc(Cl)cc2)C1c1ccc(OC(F)(F)F)c(Br)c1 (mixture of isomers) [Compound 94]
- EC50 (mu opioid receptor (MOR) [1]; [3]): < 700 nM
- cAMP Max. Resp. (mu opioid receptor (MOR) [1]; [7]): D (D represents a maximal response of < 40%)
- β-arr Max. Resp. (mu opioid receptor (MOR) [2]; [8]): F (F represents a maximal response of > 60%)
- EC50 (mu opioid receptor (MOR) [2]; β-arrestin recruitment): < 700 nM

SMILES: COc1ccc(C2CCCCN2c2cncc(Cl)n2)cc1Br (stereo not drawn) [compound 229]
- EC50 (mu opioid receptor (MOR) [1]; [6]): > 2100 nM
- cAMP Max. Resp. (mu opioid receptor (MOR) [1]; [7]): F (F represents a maximal response of > 60%)
- β-arr Max. Resp. (mu opioid receptor (MOR) [2]; [8]): F (F represents a maximal response of > 60%)
- EC50 (mu opioid receptor (MOR) [2]; β-arrestin recruitment): > 2100 nM
